For three compounds, IC50 and Activity results are on record in ChEMBL document CHEMBL1150524, “Two novel, potent and selective histamine H3 receptor agonists” (Bioorg Med Chem Lett, 1992).

Activity calls are given as the source filed them. The calls are words filed in the database; no cut-off is given here.

What all share (assay type): functional, tissue-based
Assay [1] deals with Histamine H3 receptor (Cavia porcellus, UniProt Q9JI35). The experiment in a line: Histamine H3 receptor agonist activity was assessed by the inhibition of the electrically evoked twitch response of the guinea-pig ileum.
Histamine H3 receptor, sequence (Q9JI35 whole entry): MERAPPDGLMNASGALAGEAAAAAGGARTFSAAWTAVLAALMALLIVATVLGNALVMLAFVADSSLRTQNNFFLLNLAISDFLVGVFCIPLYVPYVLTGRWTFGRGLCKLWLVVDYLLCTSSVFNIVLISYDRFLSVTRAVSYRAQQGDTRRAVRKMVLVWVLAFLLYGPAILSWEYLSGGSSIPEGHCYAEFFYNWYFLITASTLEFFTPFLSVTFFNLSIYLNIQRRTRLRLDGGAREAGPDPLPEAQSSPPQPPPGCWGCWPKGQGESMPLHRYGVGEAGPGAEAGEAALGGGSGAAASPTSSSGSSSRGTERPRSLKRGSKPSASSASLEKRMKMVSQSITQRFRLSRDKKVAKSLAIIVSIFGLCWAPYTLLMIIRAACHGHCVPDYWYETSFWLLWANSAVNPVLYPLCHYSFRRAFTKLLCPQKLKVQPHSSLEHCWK
Assay [2] addresses Histamine H1 receptor (Cavia porcellus) (UniProt P31389). The experiment in a line: Effect on histamine H1 receptor of the guinea-pig ileum, at 10e-5 M concentration; not significant.
For assay [3], the target named is Histamine H2 receptor (Cavia porcellus) (UniProt P47747). Description: Effect on histamine H2 receptor of the guinea-pig atrium, at 10e-5 M concentration; not significant. The conditions noted are these: Cardiac atrium.
Histamine H2 receptor (Cavia porcellus), sequence (P47747 whole entry): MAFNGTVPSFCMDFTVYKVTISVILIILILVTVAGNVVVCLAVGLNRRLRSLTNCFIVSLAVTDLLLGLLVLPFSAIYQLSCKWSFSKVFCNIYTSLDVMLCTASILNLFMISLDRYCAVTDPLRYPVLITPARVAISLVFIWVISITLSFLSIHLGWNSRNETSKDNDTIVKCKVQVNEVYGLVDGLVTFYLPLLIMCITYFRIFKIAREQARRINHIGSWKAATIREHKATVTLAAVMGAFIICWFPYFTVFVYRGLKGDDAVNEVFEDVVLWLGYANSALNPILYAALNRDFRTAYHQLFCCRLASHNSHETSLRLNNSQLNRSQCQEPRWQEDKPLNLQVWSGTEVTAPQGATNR

Histamine H1 receptor (Cavia porcellus), sequence (P31389 whole entry): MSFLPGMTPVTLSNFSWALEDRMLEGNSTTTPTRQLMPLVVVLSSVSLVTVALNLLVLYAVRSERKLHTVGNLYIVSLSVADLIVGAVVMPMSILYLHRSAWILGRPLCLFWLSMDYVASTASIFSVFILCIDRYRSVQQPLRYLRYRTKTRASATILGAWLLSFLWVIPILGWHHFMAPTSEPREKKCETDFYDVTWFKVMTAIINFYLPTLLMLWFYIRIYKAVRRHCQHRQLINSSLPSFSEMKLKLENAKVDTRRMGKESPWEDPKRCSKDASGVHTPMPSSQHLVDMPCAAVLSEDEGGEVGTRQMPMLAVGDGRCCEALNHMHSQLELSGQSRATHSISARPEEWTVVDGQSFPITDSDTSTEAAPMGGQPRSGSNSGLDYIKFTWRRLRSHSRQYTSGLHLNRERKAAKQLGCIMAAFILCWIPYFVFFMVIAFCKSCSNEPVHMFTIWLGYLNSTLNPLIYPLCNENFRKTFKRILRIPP

`N=C(N)SCCc1cnc[nH]1` [IMETIT] came in with an IC50 in assay [1] of 4.6 nM.
Consider `N=C(N)SCCc1c[nH]cn1`, for which the result in assay [2] and in assay [3] was inactive.
As for `N=C(N)CCCc1c[nH]cn1`, the IC50 in assay [1] was determined as 1.1 nM. Also, the result in assay [2] and in assay [3] was inactive.

In general, IC50 refers to the concentration that inhibits the measured activity by half. Lower therefore signals greater potency.
